# Activity calls are given as the source filed them. No cut-off for these calls is given here.
# How the values were obtained:
# Mus musculus [1] = test: Locomotor activity in CD1 mouse assessed as stimulation at 100 mg/kg, ip after 4 hrs relative to control; assay type: functional; conditions: route intraperitoneal
# Mus musculus [2] = test: Locomotor activity in CD1 mouse assessed as stimulation at 30 mg/kg, ip after 4 hrs relative to control; assay type: functional; conditions: route intraperitoneal
# Mus musculus [3] = test: Locomotor activity in CD1 mouse assessed as stimulation at 100 mg/kg, ip after 3 hrs relative to control; assay type: functional; conditions: route intraperitoneal
# Mus musculus [4] = test: Locomotor activity in CD1 mouse assessed as stimulation at 10 mg/kg, ip after 2 hrs relative to control; assay type: functional; conditions: route intraperitoneal
# [5] = target: Sodium-dependent dopamine transporter (Homo sapiens, UniProt Q01959); test: Displacement of [3H]WIN-35428 from DAT
# Mus musculus [6] = test: Locomotor activity in CD1 mouse assessed as stimulation at 10 mg/kg, ip after 1 hr relative to control; assay type: functional; conditions: route intraperitoneal
# Rattus norvegicus [7] = test: Drug discrimination effect in CD Albino rat assessed as percent of rat choosing cocaine lever at 1.7 mg/kg, ip; assay type: functional; conditions: route intraperitoneal
# Mus musculus [8] = test: Locomotor activity in CD1 mouse assessed as stimulation at 3 mg/kg, ip after 4 hrs relative to control; assay type: functional; conditions: route intraperitoneal
# Rattus norvegicus [9] = test: Drug discrimination effect in CD Albino rat assessed as percent of rat choosing cocaine lever at 3 mg/kg, ip; assay type: functional; conditions: route intraperitoneal
# Mus musculus [10] = test: Locomotor activity in CD1 mouse assessed as stimulation at 30 mg/kg, ip after 1 hr relative to control; assay type: functional; conditions: route intraperitoneal
# Mus musculus [11] = test: Locomotor activity in CD1 mouse assessed as stimulation at 3 mg/kg, ip after 2 hrs relative to control; assay type: functional; conditions: route intraperitoneal
# Mus musculus [12] = test: Activity in CD1 mouse assessed as hyperactivity at 10 mg/kg, ip after 4 hrs; assay type: functional, organism-based; parameters: dose 10 mg/kg
# Mus musculus [13] = test: Locomotor activity in CD1 mouse assessed as stimulation at 30 mg/kg, ip after 3 hrs relative to control; assay type: functional; conditions: route intraperitoneal
# Mus musculus [14] = test: Activity in CD1 mouse assessed as circling at 100 mg/kg, ip after 4 hrs; assay type: functional, organism-based; parameters: dose 100 mg/kg
# Rattus norvegicus [15] = test: Drug discrimination effect in CD Albino rat assessed as percent of rat choosing cocaine lever at 5.6 mg/kg, ip; assay type: functional; conditions: route intraperitoneal
# Rattus norvegicus [16] = test: Cocaine discrimination in ip dosed CD Albino rat; assay type: functional
# Mus musculus [17] = test: Locomotor activity in CD1 mouse assessed as stimulation at 3 mg/kg, ip after 1 hr relative to control; assay type: functional; conditions: route intraperitoneal
# Mus musculus [18] = test: Locomotor activity in CD1 mouse assessed as stimulation at 100 mg/kg, ip after 2 hrs relative to control; assay type: functional; conditions: route intraperitoneal
# Mus musculus [19] = test: Locomotor activity in CD1 mouse assessed as stimulation at 100 mg/kg, ip after 1 hr relative to control; assay type: functional; conditions: route intraperitoneal
# Mus musculus [20] = test: Locomotor activity in CD1 mouse assessed as stimulation at 30 mg/kg, ip after 2 hrs relative to control; assay type: functional; conditions: route intraperitoneal
# Mus musculus [21] = test: Locomotor activity in CD1 mouse assessed as stimulation at 10 mg/kg, ip after 4 hrs relative to control; assay type: functional; conditions: route intraperitoneal
# Mus musculus [22] = test: Locomotor activity in ip dosed CD1 mouse in peak hour; assay type: functional
# Rattus norvegicus [23] = test: Drug discrimination effect in CD Albino rat assessed as percent of rat choosing cocaine lever at 1 mg/kg, ip; assay type: functional; conditions: route intraperitoneal
# Mus musculus [24] = test: Activity in CD1 mouse assessed as stimulation at 100 mg/kg, ip after 4 hrs; assay type: functional, organism-based; parameters: dose 100 mg/kg
# Mus musculus [25] = test: Locomotor activity in CD1 mouse assessed as stimulation at 10 mg/kg, ip after 3 hrs relative to control; assay type: functional; conditions: route intraperitoneal
# Mus musculus [26] = test: Activity in CD1 mouse assessed as stereotypy at 100 mg/kg, ip after 4 hrs; assay type: functional, organism-based; parameters: dose 100 mg/kg
# Mus musculus [27] = test: Locomotor activity in CD1 mouse assessed as stimulation at 3 mg/kg, ip after 3 hrs relative to control; assay type: functional; conditions: route intraperitoneal
# Rattus norvegicus [28] = test: Drug discrimination effect in CD Albino rat assessed as percent of rat choosing cocaine lever at 10 mg/kg, ip; assay type: functional; conditions: route intraperitoneal
# Mus musculus [29] = test: Locomotor activity in CD1 mouse assessed as stimulation at 1 mg/kg, ip after 3 hrs relative to control; assay type: functional; conditions: route intraperitoneal
# Mus musculus [30] = test: Activity in CD1 mouse assessed as hind limb splay at 100 mg/kg, ip after 4 hrs; assay type: functional, organism-based; parameters: dose 100 mg/kg; conditions: Hindlimb
# [31] = target: Sodium-dependent noradrenaline transporter (Homo sapiens, UniProt P23975); test: Displacement of [3H]nisoxetine from NET
# Rattus norvegicus [32] = test: Drug discrimination effect in CD Albino rat assessed as percent of rat choosing cocaine lever at 17 mg/kg, ip; assay type: functional; conditions: route intraperitoneal
# Mus musculus [33] = test: Locomotor activity in CD1 mouse assessed as stimulation at 1 mg/kg, ip after 1 hr relative to control; assay type: functional; conditions: route intraperitoneal
# Mus musculus [34] = test: Activity in CD1 mouse assessed as tremor at 100 mg/kg, ip after 4 hrs; assay type: functional, organism-based; parameters: dose 100 mg/kg
# Mus musculus [35] = test: Activity in CD1 mouse assessed as ataxia at 100 mg/kg, ip after 4 hrs; assay type: functional, organism-based; parameters: dose 100 mg/kg
# Mus musculus [36] = test: Locomotor activity in CD1 mouse assessed as stimulation at 1 mg/kg, ip after 4 hrs relative to control; assay type: functional; conditions: route intraperitoneal
# Mus musculus [37] = test: Locomotor activity in CD1 mouse assessed as stimulation at 1 mg/kg, ip after 2 hrs relative to control; assay type: functional; conditions: route intraperitoneal
# Mus musculus [38] = test: Activity in CD1 mouse assessed as convulsions at 100 mg/kg, ip after 4 hrs; assay type: functional, organism-based; parameters: dose 100 mg/kg
# Chain of Sodium-dependent dopamine transporter (Q01959 whole entry): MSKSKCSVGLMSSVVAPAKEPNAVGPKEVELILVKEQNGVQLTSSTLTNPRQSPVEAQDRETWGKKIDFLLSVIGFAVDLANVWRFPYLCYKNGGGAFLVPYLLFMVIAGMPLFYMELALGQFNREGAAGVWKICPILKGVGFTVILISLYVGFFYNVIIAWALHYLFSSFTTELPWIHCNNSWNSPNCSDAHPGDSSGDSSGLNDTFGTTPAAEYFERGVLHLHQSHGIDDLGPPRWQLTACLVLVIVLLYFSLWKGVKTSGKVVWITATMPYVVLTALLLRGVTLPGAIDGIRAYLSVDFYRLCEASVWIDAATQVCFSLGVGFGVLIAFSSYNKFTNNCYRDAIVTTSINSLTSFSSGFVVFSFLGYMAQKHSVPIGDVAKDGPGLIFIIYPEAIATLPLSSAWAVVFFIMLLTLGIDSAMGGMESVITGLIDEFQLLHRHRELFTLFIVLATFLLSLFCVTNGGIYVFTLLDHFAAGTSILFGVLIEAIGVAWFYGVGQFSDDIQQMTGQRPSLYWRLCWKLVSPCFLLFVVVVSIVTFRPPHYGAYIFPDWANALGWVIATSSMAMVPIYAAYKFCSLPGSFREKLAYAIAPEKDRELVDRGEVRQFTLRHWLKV
# Chain of Sodium-dependent noradrenaline transporter (P23975 whole entry): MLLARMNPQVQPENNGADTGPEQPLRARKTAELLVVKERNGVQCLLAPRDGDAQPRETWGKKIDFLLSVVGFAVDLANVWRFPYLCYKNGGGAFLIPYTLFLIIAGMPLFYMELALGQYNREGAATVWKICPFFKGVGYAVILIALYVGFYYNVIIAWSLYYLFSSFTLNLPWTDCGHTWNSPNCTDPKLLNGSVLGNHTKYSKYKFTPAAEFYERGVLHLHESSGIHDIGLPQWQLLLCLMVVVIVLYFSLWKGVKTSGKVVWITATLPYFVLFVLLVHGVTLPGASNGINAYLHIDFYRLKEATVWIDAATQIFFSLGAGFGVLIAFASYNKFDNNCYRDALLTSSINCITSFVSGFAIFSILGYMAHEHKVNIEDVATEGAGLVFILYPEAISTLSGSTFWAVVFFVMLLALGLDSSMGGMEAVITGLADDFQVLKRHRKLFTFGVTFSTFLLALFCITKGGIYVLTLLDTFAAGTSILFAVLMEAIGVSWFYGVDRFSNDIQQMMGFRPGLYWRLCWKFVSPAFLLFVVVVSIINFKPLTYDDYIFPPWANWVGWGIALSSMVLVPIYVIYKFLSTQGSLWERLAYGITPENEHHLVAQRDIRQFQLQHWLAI
SMILES,Activity (Mus musculus [2]) [%],Activity (Mus musculus [4]) [%],IC50 [5] [nM],Activity (Mus musculus [6]) [%],Activity (Mus musculus [8]) [%],Activity (Mus musculus [10]) [%],Activity (Mus musculus [11]) [%],Activity (Mus musculus [13]) [%],Activity (Mus musculus [14]),Activity (Rattus norvegicus [15]) [%],ED50 (Rattus norvegicus [16]) [mg/kg],Activity (Mus musculus [17]) [%],Activity (Mus musculus [20]) [%],Activity (Mus musculus [21]) [%],ED50 (Mus musculus [22]) [mg/kg],Activity (Mus musculus [24]),Activity (Mus musculus [25]) [%],Activity (Mus musculus [27]) [%],Activity (Rattus norvegicus [28]) [%],further results
COC(=O)[C@@H]1C2CCC(C[C@H]1c1ccc(Cl)cc1)N2C (some centres not stated),158,322,3.1,340,38,868,64,1002,Active,67,2.55,49,1127,11,9.1,Active,373,135,100,Activity (Mus musculus [1]): 598%; Activity (Mus musculus [3]): 1065%; Activity (Rattus norvegicus [7]): 25%; Activity (Rattus norvegicus [9]): 67%; Activity (Mus musculus [12]): Active; Activity (Mus musculus [18]): 217%; Activity (Mus musculus [19]): 487%; Activity (Rattus norvegicus [23]): 25%; Activity (Mus musculus [26]): Active
COC(=O)[C@H]1C2CCC(C[C@@H]1c1ccccc1)N2C (some centres not stated),12,16,670,35,-50,138,-20,69,Active,29,7.66,-14,122,-27,11.7,Active,-16,-9,67,Activity (Mus musculus [29]): 12%; Activity (Mus musculus [30]): Active; IC50 [31]: > 10000 nM; Activity (Rattus norvegicus [32]): 100%; Activity (Mus musculus [33]): 9%; Activity (Mus musculus [34]): Active; Activity (Mus musculus [35]): Active; Activity (Mus musculus [36]): -60%; Activity (Mus musculus [37]): 35%; Activity (Mus musculus [38]): Active

# From ChEMBL document CHEMBL1149262, “Monoamine transporter binding, locomotor activity, and drug discrimination properties of 3-(4-substituted-phenyl)tropane-2-carboxylic acid methyl ester isomers” (J Med Chem, 2004)
